Data: patent US20100331297A1, “MODULATION OF PROTEIN TRAFFICKING” (FOLDRX PHARMACEUTICALS, INC., priority 2007, published 2010)

Columns and labels:
ΔF508 CFTR [1] = target: T1, ΔF508 CFTR (Homo sapiens, UniProt P13569, DEL508-508); experiment: Corrector activity, YFP halide (iodide) quenching assay in FRT cells expressing ΔF508 CFTR; assay type: cell-based; set-up: expressed in transfected cells; host or cells: Fischer rat thyroid (FRT) cells; conditions: FRT cells ΔF508 CFTR/YFP, 24 hours with compound at 37° C., forskolin and genistein; read-out: Corrector EC50
T1 sequence (P13569 with tags, fused parts or gaps DEL508-508): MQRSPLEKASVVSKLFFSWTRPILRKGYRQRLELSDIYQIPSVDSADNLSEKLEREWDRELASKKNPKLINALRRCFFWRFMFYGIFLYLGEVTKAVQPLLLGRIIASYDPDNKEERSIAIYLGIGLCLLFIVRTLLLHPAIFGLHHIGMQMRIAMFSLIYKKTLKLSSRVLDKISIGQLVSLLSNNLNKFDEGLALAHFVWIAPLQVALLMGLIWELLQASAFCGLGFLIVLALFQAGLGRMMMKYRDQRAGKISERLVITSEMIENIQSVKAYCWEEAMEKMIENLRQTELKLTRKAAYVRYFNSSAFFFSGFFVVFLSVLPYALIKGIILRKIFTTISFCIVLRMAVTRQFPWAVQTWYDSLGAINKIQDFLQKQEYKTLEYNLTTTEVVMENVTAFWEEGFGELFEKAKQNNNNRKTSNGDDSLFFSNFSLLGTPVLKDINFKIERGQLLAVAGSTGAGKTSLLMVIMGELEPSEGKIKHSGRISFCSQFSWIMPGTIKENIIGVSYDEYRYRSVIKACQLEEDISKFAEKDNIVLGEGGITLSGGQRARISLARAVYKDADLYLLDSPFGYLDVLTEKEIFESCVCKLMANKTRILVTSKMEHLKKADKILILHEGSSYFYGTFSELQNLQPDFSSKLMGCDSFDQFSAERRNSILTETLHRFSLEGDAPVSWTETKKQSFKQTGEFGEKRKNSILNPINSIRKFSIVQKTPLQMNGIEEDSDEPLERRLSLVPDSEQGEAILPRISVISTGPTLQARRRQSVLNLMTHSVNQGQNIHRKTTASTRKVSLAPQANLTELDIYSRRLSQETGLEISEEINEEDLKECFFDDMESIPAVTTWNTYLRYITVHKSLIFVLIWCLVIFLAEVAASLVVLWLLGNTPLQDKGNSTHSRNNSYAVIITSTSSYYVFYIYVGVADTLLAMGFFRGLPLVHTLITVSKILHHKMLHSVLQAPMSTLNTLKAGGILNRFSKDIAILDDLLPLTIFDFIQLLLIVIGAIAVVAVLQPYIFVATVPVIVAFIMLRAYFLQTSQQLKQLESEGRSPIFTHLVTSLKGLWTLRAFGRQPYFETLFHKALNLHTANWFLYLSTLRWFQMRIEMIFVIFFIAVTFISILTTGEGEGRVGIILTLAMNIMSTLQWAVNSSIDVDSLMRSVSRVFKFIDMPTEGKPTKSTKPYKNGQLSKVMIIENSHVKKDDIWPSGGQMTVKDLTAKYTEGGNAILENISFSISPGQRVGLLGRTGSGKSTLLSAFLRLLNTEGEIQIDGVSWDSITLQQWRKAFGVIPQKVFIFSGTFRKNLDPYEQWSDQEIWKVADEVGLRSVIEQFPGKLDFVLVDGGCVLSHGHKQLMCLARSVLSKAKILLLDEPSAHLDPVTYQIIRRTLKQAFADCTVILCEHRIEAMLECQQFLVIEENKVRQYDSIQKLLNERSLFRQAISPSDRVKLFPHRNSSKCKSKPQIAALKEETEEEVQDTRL
Summary of the method: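 FRT cells co-expressing ΔF508 CFTR and halide-sensitive YFP were incubated 24 h at 37° C with compounds, then stimulated 30 min at 37° C in PBS with forskolin and genistein. Endpoint fluorescence after iodide injection was normalized to initial reading; EC50 from 4-parameter fit with bottom constrained to DMSO control.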

ΔF508 CFTR [2] = target: T1, ΔF508 CFTR; experiment: Potentiator activity, YFP halide (iodide) quenching assay in FRT cells expressing ΔF508 CFTR, 27° C. pre-incubation; assay type: cell-based; set-up: expressed in transfected cells; host or cells: Fischer rat thyroid (FRT) cells; conditions: FRT cells ΔF508 CFTR/YFP, 24 hours at 27° C., compound with forskolin 30 min
Summary of the method: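 FRT cells stably co-expressing ΔF508 CFTR and halide-sensitive YFP, grown 24 h at 37° C. then 24 h at 27° C. to raise surface CFTR. Compounds in PBS with forskolin, 30 min at 37° C.; iodide injected and YFP quenching (ex 485/em 530 nm) followed. EC50 from normalized endpoint fluorescence.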

SMILES	EC50 (ΔF508 CFTR [1])	EC50 (ΔF508 CFTR [2])
CCn1nc([S+]([O-])c2cccc(C)c2)c2c(N)ncnc21 (stereo not shown) [compound 224]	> 15 µM	> 15 µM
CC(C)(C)n1nc(Oc2cccc3cccnc23)c2c(N)ncnc21 [compound 195]	5 to 10 µM	> 15 µM
Nc1ncnc2c1c(-c1ccc(Cl)cc1)nn2C1CCCC1 [compound 247]	2 to 5 µM	2 to 5 µM
CC(C)N1CC(n2nc(-c3ccc(Cl)cc3)c3c(N)ncnc32)C1 [Compound No. 304, 3-(4-Chloro-phenyl)-1-(1-isopropyl-azetidin-3-yl)-1H-pyrazolo[3,4-d]pyrimidin-4-ylamine]	5 to 10 µM	> 15 µM
CC(C)(C)n1nc(Oc2ccc(F)cc2)c2c(N)ncnc21 [compound 196]	5 to 10 µM	< 2 µM
CN1CC(n2nc(-c3ccc(Cl)cc3)c3c(N)ncnc32)C1 [Compound No. 296, 3-(4-Chloro-phenyl)-1-(1-methyl-azetidin-3-yl)-1H-pyrazolo[3,4-d]pyrimidin-4-ylamine]	> 15 µM	> 15 µM
CC(C)(C)n1nc(Oc2cccc(Cl)c2)c2c(NC(=O)c3ccccc3)ncnc21 [Compound No. 332, N-[1-tert-Butyl-3-(3-chloro-phenoxy)-1H-pyrazolo[3,4-d]pyrimidin-4-yl]-benzamide]	> 15 µM	< 2 µM
Cc1ccc(C(=O)Nc2ncnc3c2c(-c2ccc(C)cc2)nn3C(C)(C)C)cc1 [compound 95]	> 15 µM	2 to 5 µM
CCOC(=O)N1CC(n2nc(-c3ccc(Cl)cc3)c3c(N)ncnc32)C1 [compound 270]	> 15 µM	> 15 µM
CCn1cc(Sc2ccccc2)c2c(N)ncnc21 [Compound No. 333, 7-Ethyl-5-phenylsulfanyl-7H-pyrrolo[2,3-d]pyrimidin-4-ylamine]	2 to 5 µM	< 2 µM
CC(C)(C)n1nc([S+]([O-])c2ccccn2)c2c(N)ncnc21 (stereo not shown) [compound 329]	> 15 µM	> 15 µM
Nc1ncnc2c1c(Cc1cccc3ccccc13)nn2C1CNC1 [compound 413]	> 15 µM	> 15 µM
CCn1nc(Sc2cccc(C)c2)c2c(N)ncnc21 [compound 218]	5 to 10 µM	< 2 µM
Nc1ncnc2c1c(Oc1cccc(Cl)c1)nn2CC1CCC1 [compound 256]	> 15 µM	< 2 µM
CC(=O)N1CCC(n2nc(-c3ccc(Cl)cc3)c3c(N)ncnc32)CC1 [compound 302]	< 2 µM	> 15 µM
Nc1ncnc2c1c(-c1ccc(Cl)cc1)nn2C(=O)Oc1ccccc1 [compound 187]	5 to 10 µM	> 15 µM
CC(C)(C)n1nc(-c2ccc3c(c2)OCO3)c2c(N)ncnc21 [compound 131]	> 15 µM	2 to 5 µM
CCn1cc(-c2ccc(Cl)cc2)c2c(NC(=O)C(C)C)ncnc21 [compound 336]	< 2 µM	5 to 10 µM
CCNC(=O)N1CC(n2nc(-c3ccc(Cl)cc3)c3c(N)ncnc32)C1 [Compound No. 275, 3-[4-Amino-3-(4-chloro-phenyl)-pyrazolo[3,4-d]pyrimidin-1-yl]azetidine-1-carboxylic acid ethylamide]	> 15 µM	> 15 µM
CC(C)C(=O)Nc1ncnc2c1c(-c1ccc(Cl)cc1)cn2C(C)C [compound 352]	< 2 µM	< 2 µM
Cc1cc(Oc2nn(C(C)(C)C)c3ncnc(N)c23)ccc1F [compound 179]	> 15 µM	< 2 µM
CCn1nc(Sc2cccc3ccccc23)c2c(N)ncnc21 [compound 207]	> 15 µM	< 2 µM
Nc1ncnc2c1c(Oc1cccc(Cl)c1)nn2C1CCC1 [compound 228]	> 15 µM	< 2 µM
